Target: T1, ALK (baculovirus expressed human ALK kinase domain F1098-K1410) (Homo sapiens, UniProt Q9UM73)
T1 construct: baculovirus expressed human ALK kinase domain F1098-K1410; made in house
Test: Luciferase-Coupled Chemiluminescent Kinase assay (LCCA), ALK biochemical activity
Conditions: inhibition of ALK; mean values; 1 μM ATP, 4 μM poly-AEKY, 12 nM ALK, 2 hours ambient temperature
Summary of the method: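 Luciferase-coupled readout of ATP remaining after reaction of 12 nM ALK kinase domain with 1 μM ATP and 4 μM poly-AEKY, Tris-HCl pH 7.5 buffer with MgCl2 and MnCl2. Incubated 2 h at ambient temperature; inhibition derived from ATP consumption across serial compound dilutions.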

T1 sequence (Q9UM73 1098-1410): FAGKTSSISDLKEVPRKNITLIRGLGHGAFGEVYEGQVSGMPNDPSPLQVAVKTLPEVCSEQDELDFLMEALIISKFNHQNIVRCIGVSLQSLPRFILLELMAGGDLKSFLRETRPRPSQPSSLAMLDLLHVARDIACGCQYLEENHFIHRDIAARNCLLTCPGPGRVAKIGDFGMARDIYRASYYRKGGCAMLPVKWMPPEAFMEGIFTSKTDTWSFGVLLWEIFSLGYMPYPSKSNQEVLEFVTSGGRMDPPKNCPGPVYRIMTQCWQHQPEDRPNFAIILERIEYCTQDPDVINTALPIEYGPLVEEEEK

| Structure (SMILES) | IC50 [nM] |
| --- | --- |
| COc1c(OCCN2CCN(C3CCCCC3)CC2)cc(F)c2c(-c3ccc(O)c(Cl)c3)nc3[nH]nc(C)c3c12 [Example 234, 2-chloro-4-[8-{[2-(4-cyclohexylpiperazin-1-yl)ethyl]oxy}-6-fluoro-1-methyl-9-(methyloxy)-3H-pyrazolo[3,4-c]isoquinolin-5-yl]phenol] | ≤ 99 |
| COc1c(OCCN2CCN(CC(=O)NC(C)C)CC2)cc(F)c2c(-c3ccc(O)c(Cl)c3)nc3[nH]nc(C)c3c12 [Example 235, 2-[4-(2-{[5-(3-chloro-4-hydroxyphenyl)-6-fluoro-1-methyl-9-(methyloxy)-3H-pyrazolo[3,4-c]isoquinolin-8-yl]oxy}ethyl)piperazin-1-yl]-N-(1-methylethyl)acetamide] | ≤ 99 |
| COc1c(OCCN2CCC(N3CCCCC3)CC2)cc(F)c2c(-c3ccc(O)c(Cl)c3)nc3[nH]nc(C)c3c12 [Example 236, 4-[8-{[2-(1,4′-bipiperidin-1′-yl)ethyl]oxy}-6-fluoro-1-methyl-9-(methyloxy)-3H-pyrazolo[3,4-c]isoquinolin-5-yl]-2-chlorophenol] | ≤ 99 |
| COc1c(OCCN2CCCN(C)CC2)cc(F)c2c(-c3ccc(O)c(Cl)c3)nc3[nH]nc(C)c3c12 [Example 237, 2-chloro-4-[6-fluoro-1-methyl-8-{[2-(4-methyl-1,4-diazepan-1-yl)ethyl]oxy}-9-(methyloxy)-3H-pyrazolo[3,4-c]isoquinolin-5-yl]phenol] | ≤ 99 |
| COc1c(OCCN2CCN(c3ccccn3)CC2)cc(F)c2c(-c3ccc(O)c(Cl)c3)nc3[nH]nc(C)c3c12 [Example 238, 2-chloro-4-(6-fluoro-1-methyl-9-(methyloxy)-8-{[2-(4-pyridin-2-ylpiperazin-1-yl)ethyl]oxy}-3H-pyrazolo[3,4-c]isoquinolin-5-yl)phenol] | ≤ 99 |
| COc1c(OCCN2CC(C)OC(C)C2)cc(F)c2c(-c3ccc(O)c(Cl)c3)nc3[nH]nc(C)c3c12 (stereo not drawn) [Example 239, 2-chloro-4-[8-{[2-(2,6-dimethylmorpholin-4-yl)ethyl]oxy}-6-fluoro-1-methyl-9-(methyloxy)-3H-pyrazolo[3,4-c]isoquinolin-5-yl]phenol] | ≤ 99 |
| COc1c(OCCN2CCSCC2)cc(F)c2c(-c3ccc(O)c(Cl)c3)nc3[nH]nc(C)c3c12 [Example 240, 2-chloro-4-{6-fluoro-1-methyl-9-(methyloxy)-8-[(2-thiomorpholin-4-ylethyl)oxy]-3H-pyrazolo[3,4-c]isoquinolin-5-yl}phenol] | ≤ 99 |
| COc1c(OCCN2C(C)CCCC2C)cc(F)c2c(-c3ccc(O)c(Cl)c3)nc3[nH]nc(C)c3c12 (stereo not drawn) [Example 241, 2-chloro-4-[8-{[2-(2,6-dimethylpiperidin-1-yl)ethyl]oxy}-6-fluoro-1-methyl-9-(methyloxy)-3H-pyrazolo[3,4-c]isoquinolin-5-yl]phenol] | ≤ 99 |
| COc1c(OCCN2CCCC3CCCCC32)cc(F)c2c(-c3ccc(O)c(Cl)c3)nc3[nH]nc(C)c3c12 (stereo not drawn) [Example 242, 2-chloro-4-(6-fluoro-1-methyl-9-(methyloxy)-8-{[2-(octahydroquinolin-1(2H)-yl)ethyl]oxy}-3H-pyrazolo[3,4-c]isoquinolin-5-yl)phenol] | ≤ 99 |
| COc1c(OCCN(C(C)C)C(C)C)cc(F)c2c(-c3ccc(O)c(Cl)c3)nc3[nH]nc(C)c3c12 [Example 243, 4-[8-({2-[bis(1-methylethyl)amino]ethyl}oxy)-6-fluoro-1-methyl-9-(methyloxy)-3H-pyrazolo[3,4-c]isoquinolin-5-yl]-2-chlorophenol] | ≤ 99 |
| COCCN(CCOC)CCOc1cc(F)c2c(-c3ccc(O)c(Cl)c3)nc3[nH]nc(C)c3c2c1OC [Example 244, 4-[8-[(2-{bis[2-(methyloxy)ethyl]amino}ethyl)oxy]-6-fluoro-1-methyl-9-(methyloxy)-3H-pyrazolo[3,4-c]isoquinolin-5-yl]-2-chlorophenol] | ≤ 99 |
| COc1c(OCCN2CCCCC2)cc(F)c2c(-c3ccc(O)c(Cl)c3)nc3[nH]nc(C)c3c12 [Example 245, 2-chloro-4-{6-fluoro-1-methyl-9-(methyloxy)-8-[(2-piperidin-1-ylethyl)oxy]-3H-pyrazolo[3,4-c]isoquinolin-5-yl}phenol] | ≤ 99 |

Source: patent US7872014B2, “Anaplastic lymphoma kinase modulators and methods of use” (Exelixis, Inc., priority 2003, dated 2011)
